Laboratory results published in patent publication US12167995B2, “[((1R,2S,5R)-2-isopropyl-5-methyl-cyclohexanecarbonyl)-amino]-acetic acid isopropyl ester for treatment of chronic cough” (AXALBION SA, priority 2019, dated 2024).
Entries after “also recorded” stand apart in the source; their conditions may differ.

Columns and labels:
human TRPM8 = molecular target: T1, human TRPM8 (Homo sapiens, UniProt Q7Z2W7); test: FLIPR calcium assay on cloned human TRPM8 channels expressed in CHO cells; format: cell-based
T1 construct: host or cells: CHO cells
T1 sequence (Q7Z2W7 whole entry): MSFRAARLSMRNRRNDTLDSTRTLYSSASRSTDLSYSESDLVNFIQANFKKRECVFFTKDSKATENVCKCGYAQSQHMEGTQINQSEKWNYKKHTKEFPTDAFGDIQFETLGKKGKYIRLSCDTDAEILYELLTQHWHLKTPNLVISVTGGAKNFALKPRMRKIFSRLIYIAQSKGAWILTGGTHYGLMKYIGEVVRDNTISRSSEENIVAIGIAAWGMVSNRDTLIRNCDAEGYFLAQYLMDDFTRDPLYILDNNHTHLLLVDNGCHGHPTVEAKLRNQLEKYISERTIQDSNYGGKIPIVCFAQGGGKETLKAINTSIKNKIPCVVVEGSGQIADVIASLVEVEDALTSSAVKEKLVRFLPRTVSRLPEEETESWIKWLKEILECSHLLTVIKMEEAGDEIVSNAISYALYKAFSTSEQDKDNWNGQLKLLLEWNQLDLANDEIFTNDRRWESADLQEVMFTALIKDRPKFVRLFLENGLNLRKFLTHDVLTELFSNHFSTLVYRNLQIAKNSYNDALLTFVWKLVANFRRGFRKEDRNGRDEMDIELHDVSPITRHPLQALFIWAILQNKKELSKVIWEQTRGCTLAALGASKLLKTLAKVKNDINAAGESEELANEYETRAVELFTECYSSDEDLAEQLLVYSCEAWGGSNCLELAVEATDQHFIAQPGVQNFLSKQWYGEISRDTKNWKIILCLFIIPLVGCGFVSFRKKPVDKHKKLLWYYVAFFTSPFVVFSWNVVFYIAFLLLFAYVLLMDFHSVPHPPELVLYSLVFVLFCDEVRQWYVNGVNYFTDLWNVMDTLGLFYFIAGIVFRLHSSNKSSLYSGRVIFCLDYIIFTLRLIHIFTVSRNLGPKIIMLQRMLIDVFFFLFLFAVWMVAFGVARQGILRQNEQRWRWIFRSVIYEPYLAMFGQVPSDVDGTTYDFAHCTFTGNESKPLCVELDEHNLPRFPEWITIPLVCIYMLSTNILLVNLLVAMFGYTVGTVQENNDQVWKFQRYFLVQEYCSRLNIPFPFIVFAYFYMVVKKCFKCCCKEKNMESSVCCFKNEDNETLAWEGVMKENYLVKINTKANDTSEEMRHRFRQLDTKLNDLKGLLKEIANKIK
Procedure: AX-8 potency was assessed using Fluorescence Imaging Plate Reader (FLIPR®) assays (study performed by ChanTest/Charles River). The in vitro effects were evaluated on cloned human TRPM8 channels expressed in CHO cells using a Fluo-8 calcium kit and a Fluorescence Imaging Plate Reader ([…]™) instrument. Changes is fluorescence intensity, reflecting the calcium flux through hTRPM8, were measured and the area under the signals (area under the curve, AUC) calculated and expressed in relative light units. Changes induced by the vehicle (HEPES-buffered physiological saline solution, HB-PS) were subtracted.

hTRPV1 = molecular target: T2, hTRPV1 (Homo sapiens, UniProt Q8NER1); test: FLIPR calcium assay, selectivity against hTRPV1 (expressed in HEK-293); format: cell-based
T2 construct: expressed in transfected cells; host or cells: HEK-293
T2 sequence (Q8NER1 whole entry): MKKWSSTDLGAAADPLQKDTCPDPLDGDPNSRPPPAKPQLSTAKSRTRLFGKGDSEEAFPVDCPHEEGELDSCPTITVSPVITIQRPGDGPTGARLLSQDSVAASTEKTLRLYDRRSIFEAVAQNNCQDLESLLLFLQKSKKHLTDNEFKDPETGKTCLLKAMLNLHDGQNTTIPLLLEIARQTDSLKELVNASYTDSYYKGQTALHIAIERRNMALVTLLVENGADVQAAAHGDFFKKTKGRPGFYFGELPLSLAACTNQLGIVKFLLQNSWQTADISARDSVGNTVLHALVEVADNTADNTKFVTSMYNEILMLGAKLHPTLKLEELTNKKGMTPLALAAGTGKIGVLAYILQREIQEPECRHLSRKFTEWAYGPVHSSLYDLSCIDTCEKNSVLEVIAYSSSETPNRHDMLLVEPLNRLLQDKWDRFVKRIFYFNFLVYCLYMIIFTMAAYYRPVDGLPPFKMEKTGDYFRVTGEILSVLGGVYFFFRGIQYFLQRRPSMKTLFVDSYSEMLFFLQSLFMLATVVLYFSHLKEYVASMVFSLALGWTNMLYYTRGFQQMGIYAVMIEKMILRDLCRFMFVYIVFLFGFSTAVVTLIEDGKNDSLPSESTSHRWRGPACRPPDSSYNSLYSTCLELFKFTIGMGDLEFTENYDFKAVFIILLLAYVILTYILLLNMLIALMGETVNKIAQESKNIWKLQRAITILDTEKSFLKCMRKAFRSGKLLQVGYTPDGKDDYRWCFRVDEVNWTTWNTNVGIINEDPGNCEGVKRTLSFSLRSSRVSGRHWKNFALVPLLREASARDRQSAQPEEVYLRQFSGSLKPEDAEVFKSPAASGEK
Procedure: Similarly, selectivity against hTRPA1 (expressed in CHO) and hTRPV1 (expressed in HEK-293) was assessed using FLIPR® calcium assay (at 100 μM, i.e., 10-fold more than the concentration for maximal response; see FIG. 12). […] For the agonist effect assessment, the effect of AX-8 was evaluated in the absence of the positive control agonist. The maximal signal elicited in the presence of the respective agonist (300 μM mustard oil for TRPA1; 3 μM capsaicin for TRPV1) was set to 100% activation and the signal in the presence of the vehicle control (HB-PS) was set to 0% activation. For the antagonist effect assessment, the channels were activated with the respective positive control agonist (100 μM mustard oil for TRPA1; 0.1 μM capsaicin for TRPV1). The effects of AX-8 to inhibit the signal was examined after agonist stimulation and compared to the respective positive control antagonist (3 μM ruthenium red). For each channel, the signal elicited in the presence of the respective positive control agonist was set to 100 (0% inhibition) and the signal in the presence of the respective positive control antagonist was set to 0 (100% inhibition).

[1] = system: 87 primary molecular targets including 13 enzyme and 74 binding assays; test: Off-target pharmacology study (SafetyScreen87 assay); settings: 100 μM AX-8
Excerpt: In addition, an off-target pharmacology study (SafetyScreen87 assay by Eurofins Pharma Discovery Services) has been performed. This assay package consists of 87 primary molecular targets including 13 enzyme and 74 binding assays, representing potential safety issues.

[2] = system: refractory chronic cough (RCC); test: Clinical Trial 2: objective cough frequency (VitaloJAK 24-hour recording) in RCC patients; format: in vivo, human; design: Cough frequency, Ln Mean (SE), Treatment, 8 hours (GEE) / Cough frequency, Ln Mean (SE), Treatment, 4 hours (GEE) / Cough frequency, Ln Mean (SE), Treatment, 24 hours (GEE): unit not given here
Procedure: The primary objective of the study was to assess the effectiveness of AX-8 (the study drug) for the treatment of RCC and associated upper airway symptoms after one dose of treatment (an orally disintegrating tablet (ODT) having 5 mg AX-8, administered orally and dissolved on the tongue) in reducing awake cough frequency compared to baseline, for the purpose of planning a future randomized controlled trial. Subjects took a single orally disintegrating tablet (ODT) with 5 mg AX-8 in the morning on the first day of the treatment period (Day 1). This Investigational Medical Product (IMP) was let to dissolve on the tongue. […] Objective cough frequency was measured as 24-hour sound recordings using a custom-built digital recording device (VitaloJAK, Vitalograph, Ltd). VitaloJAK™ is a semi-automated 24-hour ambulatory cough monitoring system (Vitalograph; Buckinghamshire, England) operating in a manner which completely replicates routine practice. The 24-hour recordings are compressed using custom designed compression software, using an algorithm. The VitaloJAK™ is a reliable, robust and efficient tool for the objective measurement of cough frequency. Importantly it reduces 24-hour recordings by up to 98% whilst preserving close to 100% of recorded cough sounds. It is worn like a Holter monitor, with a single sensor affixed to the patient's chest wall. An optional second channel via a conventional microphone (worn, for example, on the patient's shirt) allows quality assurance with human intervention. The device itself is attached on the trousers, skirt, etc. The 24-hour cough frequency (coughs per hour) for a specified visit was calculated as: 24-hour cough frequency=(total number of cough events during the monitoring period (24-hour interval))/24. Awake cough frequency=(total number of cough events during the monitoring period (24-hour interval) while the subject was awake)/(total duration (in hours) during the monitoring period (24-hour interval) that the subject was awake). Percent change in awake cough frequency=[(Change from baseline in awake cough frequency×100)/(Baseline awake cough frequency)]. The proportion of participants with ≥30% of reduction from baseline in awake cough frequency is the number of participants with ≤−30% change in awake cough frequency divided by the total number of participants with available data. For awake and asleep cough frequencies, baseline and treatment data were compared using Wilcoxon signed rank test due to the skewed nature of the data. For 24 hour-, 8 hour-, and 4 hour-cough frequencies, baseline and treatment data were compared using General Estimating Equations (GEE) models. Prior to analysis, these cough count data were natural log (Ln) transformed in order to normalise the distribution of the data. As some individual hourly cough counts were zero, 0.1 was added to all values prior to transformation.

[3] = Phase 1 study in healthy volunteers: safety and tolerability; format: in vivo, human; settings: single dose 5 mg ODT, 12 healthy subjects; no remarkable adverse events
[4] = single 5 mg AX-8 ODT, treatment vs baseline

EC50 (human TRPM8; calcium signal AUC, Fluo-8, n=8, read-out: half-maximal response concentration (EC50), activation of human TRPM8): 0.39 µM | potency as TRPM8 agonist relative to menthol (human TRPM8; ratio of EC50 values): ~6 times
SMILES: CC(C)OC(=O)CNC(=O)[C@@H]1C[C@H](C)CC[C@H]1C(C)C [AX-8, [((1R,2S,5R)-2-isopropyl-5-methyl-cyclohexanecarbonyl)-amino]-acetic acid isopropyl ester]
antagonistic interaction with TRPV1 (hTRPV1; at 100 μM, channel activated with 0.1 μM capsaicin, control antagonist 3 μM ruthenium red): no agonistic or antagonistic interactions | agonistic activity on hTRPV1 (hTRPV1; concentrations ≤100 μM, % of capsaicin maximal response, n=4): no agonistic or antagonistic interactions; also recorded: no agonistic activity on hTRPV1 | responses in SafetyScreen87 off-target panel [1]: No significant responses were observed | subjects with ≥30% reduction in 24-hour cough frequency per hour ([2]; 4/12 subjects): 33.3% | subjects with ≥30% reduction in awake cough frequency per hour ([2]; 4/12 subjects): 33.3% | subjects with ≥30% reduction in 4-hour cough frequency per hour ([2]; 5/12 subjects): 41.7% | subjects with ≥30% reduction in 8-hour cough frequency per hour ([2]; 7/12 subjects): 58.3% | Treatment ratio, 24 hours (GEE) ([2]; 95% CI −0.53 to 0.20, p=0.368): −0.166 | reduction in cough frequency during sleep ([2]; from 7.1 to 3.7, may not be statistically significant): 48% | reduction in cough frequency during waking hours ([2]; from 64.1 to 54.8): 14.5% | Cough frequency, Ln Mean (SE), Treatment, 24 hours (GEE) ([2]; natural log transformed, 0.1 added, baseline 2.87 (0.19)): 2.70 (0.33) | Cough frequency, Ln Mean (SE), Treatment, 8 hours (GEE) ([2]; natural log transformed, 0.1 added, baseline 3.72 (0.22)): 3.26 (0.39) | Cough frequency, Ln Mean (SE), Treatment, 4 hours (GEE) ([2]; natural log transformed, 0.1 added, baseline 3.92 (0.19)): 3.38 (0.39) | Treatment ratio (95% CI), 8 hours (GEE) ([2]; p=0.033): −0.461 (−0.88 to −0.04) | Treatment ratio (95% CI), 4 hours (GEE) ([2]; p=0.047): −0.54 (−1.08 to −0.01) | Cough frequency, Median, Treatment, Asleep ([2]; single 5 mg AX-8 ODT, n=12, baseline 7.1, p=0.272 Wilcoxon): 3.7 (0.6-17.5) coughs/hour | Cough frequency, Median, Treatment, 24 hours ([2]; single 5 mg AX-8 ODT, n=12, baseline 48.1): 44.3 coughs/hour | Cough frequency, Median, Treatment, Awake ([2]; single 5 mg AX-8 ODT, n=12, baseline 64.1, p=0.034 Wilcoxon): 54.8 (16.4-79.5) coughs/hour | Cough frequency, Median, Treatment, 4 hours ([2]; single 5 mg AX-8 ODT, n=12, baseline 71.0): 53.4 coughs/hour | Cough frequency, Median, Treatment, 8 hours ([2]; single 5 mg AX-8 ODT, n=12, baseline 75.5): 45.4 coughs/hour | Cough frequency, Change of median, 4 hours [2, 4]: −24.8% | Cough frequency, Change of median, 8 hours [2, 4]: −39.9% | Cough frequency, Change of median, 24 hours [2, 4]: −7.90% | Cough frequency, Change of median, Asleep [2, 4]: −47.9% | Cough frequency, Change of median, Awake [2, 4]: −14.5% | Percentage Change, 8 hours (GEE) ([2]; treatment vs baseline, p=0.033): −36.9% | Percentage Change, 4 hours (GEE) ([2]; treatment vs baseline, p=0.047): −42.0% | Percentage Change, 24 hours (GEE) ([2]; treatment vs baseline, p=0.368): −15.3% | safety and tolerability [3]: well tolerated
